Publication PMC4648043, “Development of Small-Molecule Trypanosoma brucei N-Myristoyltransferase Inhibitors: Discovery and Optimisation of a Novel Binding Mode” (Chemmedchem, 2015)
Where two headings read alike, the source gives them in different places.

Key:
[1] = target: T1, TbNMT (Trypanosoma brucei brucei, UniProt Q388H8); assay: biochemical; type: biochemical; settings: for LE TbNMT (ligand efficiency): calculated as 0.6 ln(IC50)/(heavy atom count); for IC50: mean of two or more determinations
T1 sequence (Q388H8 1-446): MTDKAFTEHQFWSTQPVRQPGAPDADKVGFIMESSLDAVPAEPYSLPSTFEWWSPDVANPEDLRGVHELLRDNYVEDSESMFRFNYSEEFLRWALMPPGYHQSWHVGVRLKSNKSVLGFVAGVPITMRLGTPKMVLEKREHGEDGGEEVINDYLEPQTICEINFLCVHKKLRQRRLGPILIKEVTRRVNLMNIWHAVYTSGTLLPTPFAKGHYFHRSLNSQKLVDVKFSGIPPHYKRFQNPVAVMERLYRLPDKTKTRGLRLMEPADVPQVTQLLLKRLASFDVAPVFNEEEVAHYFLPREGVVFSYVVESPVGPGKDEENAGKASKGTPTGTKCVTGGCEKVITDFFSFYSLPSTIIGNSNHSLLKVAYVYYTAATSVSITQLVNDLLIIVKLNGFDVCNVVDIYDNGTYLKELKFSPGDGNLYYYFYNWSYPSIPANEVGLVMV
Procedure: (§1) Parasite and NMT assays: These were carried out as described previously.[8–10]

[2] = target: T2, hNMT (Homo sapiens, UniProt P30419); assay: human NMT enzyme inhibition assay; type: biochemical; settings: mean of two or more determinations
T2 sequence (P30419 1-496): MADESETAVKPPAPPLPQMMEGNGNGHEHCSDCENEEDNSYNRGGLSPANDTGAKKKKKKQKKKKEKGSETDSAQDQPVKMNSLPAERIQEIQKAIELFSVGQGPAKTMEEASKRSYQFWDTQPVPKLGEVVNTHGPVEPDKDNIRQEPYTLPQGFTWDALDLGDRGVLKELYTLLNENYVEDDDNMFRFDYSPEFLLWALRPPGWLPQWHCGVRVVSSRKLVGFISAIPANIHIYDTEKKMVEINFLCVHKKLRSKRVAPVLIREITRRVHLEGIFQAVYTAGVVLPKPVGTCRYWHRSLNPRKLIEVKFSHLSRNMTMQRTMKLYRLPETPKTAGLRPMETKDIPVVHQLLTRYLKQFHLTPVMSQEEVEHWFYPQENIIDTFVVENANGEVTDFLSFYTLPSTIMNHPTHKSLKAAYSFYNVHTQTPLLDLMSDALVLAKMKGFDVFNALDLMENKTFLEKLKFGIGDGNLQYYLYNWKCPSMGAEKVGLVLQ
Procedure: as §1

[3] = tested on: T. brucei; assay: T. brucei parasite growth assay; type: cell-based, Trypanosoma brucei; settings: Trypanosoma brucei; mean of two or more determinations
Procedure: as §1

[4] = tested on: hMRC5; assay: MRC5 cell assay; type: cell-based; settings: Homo sapiens, mean of two or more determinations

LE TbNMT (ligand efficiency) [1] | IC50 ([1]; read-out: IC50 TbNMT) [µM] | IC50 [2] [µM] | EC50 [3] [µM] | IC50 ([1]; IC50 TbNMT) [µM] | improvement in potency at TbNMT ([1]; relative to parent/starting compound) [fold] | SMILES | EC50 [4] [µM]
0.38 | 22 | > 100 |  |  |  | O=C1COc2ccccc2N1Cc1ccccn1 [Compound 25, 4-(Pyridin-2-ylmethyl)-2H-benzo[b][1,4]oxazin-3(4H)-one] | 
 | > 100 | > 100 |  |  |  | CNC(=O)CN1C(=O)COc2ccccc21 [Compound 20, N-Methyl-2-(3-oxo-2H-benzo[b][1,4]oxazin-4(3H)-yl)acetamide] | 
0.32 | 18 | > 100 |  |  |  | CC(C)Cc1nc(CN2C(=O)COc3ccccc32)no1 [Compound 29, 4-((5-Isobutyl-1,2,4-oxadiazol-3-yl)methyl)-2H-benzo[b][1,4]oxazin-3(4H)-one] | 
0.38 | 13 | > 100 |  |  |  | CCOC(=O)CCN1C(=O)COc2ccccc21 [Compound 16, Ethyl 3-(3-oxo-2H-benzo[b][1,4]oxazin-4(3H)-yl)propanoate] | 
0.33 | 7.6 | > 100 | > 50 |  |  | COc1cc(C2SCC(=O)N2Cc2ccco2)ccc1O (stereo not shown) [Compound 2, 3-(Furan-2-ylmethyl)-2-(4-hydroxy-3-methoxyphenyl)thiazolidin-4-one] | 
0.33 | 44 | > 100 |  |  |  | Cc1nc(CN2C(=O)COc3ccccc32)cs1 [Compound 24, 4-((2-Methylthiazol-4-yl)methyl)-2H-benzo[b][1,4]oxazin-3(4H)-one] | 
0.32 | 32 | > 100 | > 50 |  |  | O=C1CSC(c2ccccn2)N1c1ccccc1Cl (stereo not shown) [Compound 11, 3-(2-Chlorophenyl)-2-(pyridin-2-yl)thiazolidin-4-one] | 
0.39 | 5.9 | > 100 | > 50 |  |  | O=C1CSC(c2ccccc2)N1Cc1ccccn1 (stereo not shown) [Compound 12, 2-Phenyl-3-(pyridin-2-ylmethyl)thiazolidin-4-one] | 
 | > 100 | > 100 |  |  |  | COc1cccc(C2SCC(=O)N2Cc2ccco2)c1 (stereo not shown) [Compound 5, 3-(Furan-2-ylmethyl)-2-(3-methoxyphenyl)thiazolidin-4-one] | 
 | > 100 |  |  |  |  | O=C(CN1C(=O)COc2ccccc21)N1CCCC1 [Compound 21, 4-(2-Oxo-2-(pyrrolidin-1-yl)ethyl)-2H-benzo[b][1,4]oxazin-3(4H)-one] | 
 | > 100 | > 100 |  |  |  | O=C1COc2ccccc2N1Cc1ccncc1 [Compound 26, 4-(Pyridin-4-ylmethyl)-2H-benzo[b][1,4]oxazin-3(4H)-one] | 
 | > 100 | > 100 |  |  |  | Cc1cc(CN2C(=O)C(C)Oc3ccccc32)no1 (stereo not shown) [Compound 34, 2-Methyl-4-((5-methylisoxazol-3-yl)methyl)-2H-benzo[b][1,4]oxazin-3(4H)-one] | 
0.36 | 13 | > 50 |  |  |  | O=C1CSC(c2ccccn2)N1c1cccc(Cl)c1 (stereo not shown) [Compound 7] | 
 | > 100 | > 100 |  |  |  | CCN1C(=O)CSC1c1ccc(O)c(OC)c1 (stereo not shown) [Compound 3, 3-Ethyl-2-(4-hydroxy-3-methoxyphenyl)thiazolidin-4-one] | 
 | > 100 | > 100 |  |  |  | Cc1cc(CN2C(=O)COc3ccc(Cl)cc32)no1 [Compound 35, 6-Chloro-4-((5-methylisoxazol-3-yl)methyl)-2H-benzo[b][1,4]oxazin-3(4H)-one] | 
0.37 | 11 | > 100 |  |  |  | Cc1cc(CN2C(=O)COc3c(Br)cccc32)no1 [Compound 38, 8-Bromo-4-((5-methylisoxazol-3-yl)methyl)-2H-benzo[b][1,4]oxazin-3(4H)-one] | 
0.34 | 9 | 30 |  |  |  | CC(C)Cc1cc(CN2C(=O)COc3ccccc32)no1 [Compound 30, 4-((5-Isobutylisoxazol-3-yl)methyl)-2H-benzo[b][1,4]oxazin-3(4H)-one] | 
0.37 | 7.1 | > 100 |  |  |  | Cc1cc(CN2C(=O)COc3cc(Cl)ccc32)no1 [Compound 36, 7-Chloro-4-((5-methylisoxazol-3-yl)methyl)-2H-benzo[b][1,4]oxazin-3(4H)-one] | 

LE TbNMT (ligand efficiency) [1] | IC50 ([1]; read-out: IC50 TbNMT) [µM] | IC50 [2] [µM] | EC50 [3] [µM] | IC50 ([1]; IC50 TbNMT) [µM] | improvement in potency at TbNMT ([1]; relative to parent/starting compound) [fold] | SMILES | EC50 [4] [µM]
 | 50 | > 100 |  |  |  | CN(C)C(=O)CCN1C(=O)COc2ccccc21 [Compound 18, N,N-Dimethyl-3-(3-oxo-2H-benzo[b][1,4]oxazin-4(3H)-yl)propanamide] | 
 | > 100 | > 100 |  |  |  | Cc1noc(CN2C(=O)COc3ccccc32)n1 [Compound 27, 4-((3-Methyl-1,2,4-oxadiazol-5-yl)methyl)-2H-benzo[b][1,4]oxazin-3(4H)-one] | 
0.42 |  | > 100 | 14 | 0.27 | 20 | COc1cc(C2SCC(=O)N2Cc2ccccn2)ccc1O (stereo not shown) [Compound 13, 2-(4-Hydroxy-3-methoxyphenyl)-3-(pyridin-2-ylmethyl)thiazolidin-4-one] | 
 | > 100 | > 100 |  |  |  | COc1cc(C2SCC(=O)N2c2ccccn2)ccc1O (stereo not shown) [Compound 4, 2-(4-Hydroxy-3-methoxyphenyl)-3-(pyridin-2-yl)thiazolidin-4-one] | 
0.34 | 11 | > 100 |  |  |  | O=C(CCN1C(=O)COc2ccccc21)N1CCCC1 [Compound 17, 4-(3-Oxo-3-(pyrrolidin-1-yl)propyl)-2H-benzo[b][1,4]oxazin-3(4H)-one] | 
0.37 | 6.4 | > 100 |  |  |  | Cc1cc(CN2C(=O)COc3cc(Br)ccc32)no1 [Compound 37, 7-Bromo-4-((5-methylisoxazol-3-yl)methyl)-2H-benzo[b][1,4]oxazin-3(4H)-one] | 
0.40 | 7 | > 100 |  |  |  | Cc1nc(CN2C(=O)COc3ccccc32)no1 [Compound 28, 4-((5-Methyl-1,2,4-oxadiazol-3-yl)methyl)-2H-benzo[b][1,4]oxazin-3(4H)-one] | 
0.31 | 41 | 69 |  |  |  | Cc1cccc(CN2C(=O)COc3ccccc32)n1 [Compound 31, 4-((6-Methylpyridin-2-yl)methyl)-2H-benzo[b][1,4]oxazin-3(4H)-one] | 
 | > 100 | > 100 |  |  |  | CCOC(=O)C(C)N1C(=O)COc2ccccc21 (stereo not shown) [Compound 15, Ethyl 2-(3-oxo-2H-benzo[b][1,4]oxazin-4(3H)-yl)propanoate] | 
 | > 100 | > 100 | > 50 |  |  | O=C1CSC(c2ccccn2)N1c1ccc(Cl)cc1 (stereo not shown) [Compound 10, 3-(4-Chlorophenyl)-2-(pyridin-2-yl)thiazolidin-4-one] | 
 | 80 | > 100 |  |  |  | Cn1ccc(CN2C(=O)COc3ccccc32)n1 [Compound 32, 4-((1-Methyl-1H-pyrazol-3-yl)methyl)-2H-benzo[b][1,4]oxazin-3(4H)-one] | 
0.35 | 31 | 66 |  |  |  | O=C1CSC(c2ccccn2)N1c1ccccc1 (stereo not shown) [Compound 9] | 
 | > 100 | > 100 |  |  |  | O=C1CSC(c2ccccn2)N1c1ccc2ccccc2c1 (stereo not shown) [Compound 8] | 
 |  |  | 0.15 |  |  | Cc1cc(CN2C(=O)COc3cc(CCCOC4CCNCC4)ccc32)no1 [Compound 43, 4-((5-Methylisoxazol-3-yl)methyl)-7-(3-(piperidin-4-yloxy)propyl)-2H-benzo[b][1,4]oxazin-3(4H)-one] | 22
 | > 100 | > 100 |  |  |  | CN(C)C(=O)CN1C(=O)COc2ccccc21 [Compound 19, N,N-Dimethyl-2-(3-oxo-2H-benzo[b][1,4]oxazin-4(3H)-yl)acetamide] | 
0.43 | 2.9 | > 100 |  |  |  | Cc1cc(CN2C(=O)COc3ccccc32)no1 [Compound 23, 4-((5-Methylisoxazol-3-yl)methyl)-2H-benzo[b][1,4]oxazin-3(4H)-one] | 
0.31 | 24 | > 100 |  |  |  | O=C1COc2ccccc2N1Cc1nc2ccccc2o1 [Compound 22, 4-(Benzo[d]oxazol-2-ylmethyl)-2H-benzo[b][1,4]oxazin-3(4H)-one] | 
